The test system of series [1] is Salmonella Typhimurium TA-98. Nature of the series: Modified Maron-Ames test, strain TA-98. As to conditions: for cytotoxicity: strain TA-98, with microsomal enzyme S-9 activation, no effect on the background lawn; for mutagenicity (revertant colonies): strain TA-98, with or without metabolic activation S-9. As for the experimental part:
Serial dilutions (100 fold) were made with DMSO to obtain samples with dilution factors of 10^−3, 10^−5, and 10^−7. The assays were performed according to the modified methods of Maron and Ames (Maron D. R. and Ames, B. N. Mutation Research, 1980, Vol. 113, 173-215) using two strains of Salmonella Typhimurium TA-98 and TA-100, with and without metabolic activation of the substrate. The male rat microsomal homogenate S-9 was used to effect metabolic activation of the substrate. TA-98 and TA-100 were cultured in Oxoid Nutrient Broth No.2 at 37° C. for 16 hours using a gyratory shaker (200-250 rpm).
(§1) Compounds were assayed after the bacteria tested positive for the viability-related criteria above. Two mL top agar was placed in sterile culture tubes and kept at ˜40° C. in a water bath. Samples (100 μL) were placed in each tube (3 tubes per sample) and 100 μL of either strain TA-98 or TA-100 was added. When required, the S-9 homogenate (500 μL) was then added. The tubes were mixed and poured into minimal glucose agar plates. The plates were left at room temperature until the top agar solidified. Then, they were inverted and incubated at 37° C. for 48 hours. After incubation, revertant colonies were counted. Samples that presented greater than 2 times the number of revertant colonies were considered mutagenic. (See FIGS. 9(a) through (f)).
(In general: The Ames test detects mutagens through reverse mutation in bacteria.)

Series [2] deals with Salmonella Typhimurium TA-100. Nature of the series: Modified Maron-Ames test, strain TA-100. As to conditions: for dilution at which a mutagenic response was observed: dilution in DMSO. On the procedure: […] The assays were performed according to the modified methods of Maron and Ames (Maron D. R. and Ames, B. N. Mutation Research, 1980, Vol. 113, 173-215) using two strains of Salmonella Typhimurium TA-98 and TA-100, with and without metabolic activation of the substrate. The male rat microsomal homogenate S-9 was used to effect metabolic activation of the substrate. TA-98 and TA-100 were cultured in Oxoid Nutrient Broth No.2 at 37° C. for 16 hours using a gyratory shaker (200-250 rpm).
as §1

Entries after “also recorded” stand apart in the source; their conditions may differ.

With `CC(C)(c1ccc(OCC2CO2)cc1)c1ccc(OCC2CO2)cc1` (stereo not shown) [DGEBA, diglycidyl ether of bisphenol-A], the cytotoxicity entry in series [1] was “slightly cytotoxic”. The “mutagenicity (revertant colonies)” value in series [1] is “no apparent mutagenicity”. Further, the “cytotoxicity and mutagenicity, overall conclusion” value in series [1] (tester strain TA-98, all concentrations) is recorded as “neither cytotoxic nor mutagenic”. For the same compound, the “dilution at which a mutagenic response was observed” value in series [2] (strain TA-100, with S-9 activation) is on record as “greater than 10^−3”; in series [2] (strain TA-100, without S-9 activation), “greater than 10^−5”.
Take epoxyallyl sucrose [EAS]: the cytotoxicity entry in series [1] is reported as “slightly cytotoxic”.
Same read-out and setting: in the case of epoxycrotyl sucrose [ECS] it was “slightly cytotoxic”.
On to epoxymethallyl sucrose [EMS], for which the cytotoxicity entry in series [1] is “slightly cytotoxic”; in series [2] (Maron-Ames tests, about 10 mg/mL concentration in DMSO, strain not stated), “borderline cytotoxicity”; in series [2] (dilution factors of 10^−1), “borderline cytotoxic”. In addition, the “mutagenicity (revertant colonies)” value in series [1] is given as “no apparent mutagenicity; also recorded: no mutagenic response”. Besides, in series [2] (strain TA-100, dilution factor 10^−1 in DMSO, with or without S-9 activation), the mutagenic response result is on record as “mutagenic response was observed”. In addition, the revertant colonies result in series [2] (strain TA-100, dilution factor 10^−2) is listed as “had not doubled”.

The values are drawn from US20040210047A1, “Methallyl sucroses and their epoxy derivatives” (priority 2003, published 2004).
